Source: ChEMBL document CHEMBL1135104, “A novel type of nonsteroidal estrone sulfatase inhibitors” (Bioorg Med Chem Lett, 2002)

target: T1, Steryl-sulfatase (Homo sapiens, UniProt P08842); assay: Inhibitory activity againist Estrone sulfatase from MCF-7 cells ([…]); format: cell-based, MCF7; details: not given
T1 sequence (P08842 whole entry): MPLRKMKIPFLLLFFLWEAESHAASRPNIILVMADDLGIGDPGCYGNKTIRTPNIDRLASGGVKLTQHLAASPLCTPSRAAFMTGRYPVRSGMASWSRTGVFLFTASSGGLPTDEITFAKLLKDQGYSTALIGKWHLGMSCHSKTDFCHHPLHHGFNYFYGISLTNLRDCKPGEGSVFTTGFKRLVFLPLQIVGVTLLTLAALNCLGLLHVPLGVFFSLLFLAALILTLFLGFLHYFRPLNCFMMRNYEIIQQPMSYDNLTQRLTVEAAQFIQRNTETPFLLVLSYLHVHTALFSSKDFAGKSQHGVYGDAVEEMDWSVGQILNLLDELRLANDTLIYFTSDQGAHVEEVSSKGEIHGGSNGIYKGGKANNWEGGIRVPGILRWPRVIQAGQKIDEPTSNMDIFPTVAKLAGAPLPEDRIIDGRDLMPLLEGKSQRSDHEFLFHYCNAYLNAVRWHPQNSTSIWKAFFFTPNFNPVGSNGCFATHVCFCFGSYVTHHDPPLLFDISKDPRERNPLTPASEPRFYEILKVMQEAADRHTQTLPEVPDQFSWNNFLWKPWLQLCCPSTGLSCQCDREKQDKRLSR

Q: Which IC50 does the source give for `Cc1cc(=O)oc2cc(OS(N)(=O)=O)ccc12` here?
A: 2.6 µM

Q: With `COc1c2c(c(O)c3c1C(=O)c1c(cc(O)c(C)c1O)C3=O)-c1c(cc(/C=N/N=C(\S)NC3CCC(C)CC3)c(C(=O)O)c1O)CC2` (centres undefined) as the molecule, how does the IC50 read?
A: 4 µM

Q: With `COc1c2c(c(O)c3c1C(=O)c1c(cc(O)c(C)c1O)C3=O)-c1c(cc(/C=N/NC(=O)NC3CCCCC3)c(C(=O)O)c1O)CC2` as the molecule, how does the IC50 read?
A: 7 µM

Q: For `COc1c2c(c(O)c3c1C(=O)c1c(cc(O)c(C)c1O)C3=O)-c1c(cc(/C=N/N=C(\S)Nc3ccc(Cl)cc3)c(C(=O)O)c1O)CC2`, which IC50 is on record?
A: > 100 µM

Q: With `COc1c2c(c(O)c3c1C(=O)c1c(cc(O)c(C)c1O)C3=O)-c1c(cc(/C=N/N=C(\S)N3CCCCC3)c(C(=O)O)c1O)CC2` as the molecule, how does the IC50 read?
A: 8 µM

Q: Which IC50 does the source give for `COc1c2c(c(O)c3c1C(=O)c1c(cc(O)c(C)c1O)C3=O)-c1c(cc(/C=N/NC(=O)Nc3ccccc3)c(C(=O)O)c1O)CC2` here?
A: > 100 µM

Q: For `COc1c2c(c(O)c3c1C(=O)c1c(cc(O)c(C)c1O)C3=O)-c1c(cc(/C=N/N=C(\S)Nc3ccccc3)c(C(=O)O)c1O)CC2`, which IC50 is on record?
A: 4.8 µM

Q: Which IC50 does the source give for `COc1c2c(c(O)c3c1C(=O)c1c(cc(O)c(C)c1O)C3=O)-c1c(cc(/C=N/N=C(\S)Oc3ccccc3)c(C(=O)O)c1O)CC2` here?
A: > 100 µM

Q: With `COc1c2c(c(O)c3c1C(=O)c1c(cc(O)c(C)c1O)C3=O)-c1c(cc(/C=N/N=C(\S)N(C)C3CCCCC3)c(C(=O)O)c1O)CC2` as the molecule, how does the IC50 read?
A: 1.4 µM

Q: Which IC50 does the source give for `COc1c2c(c(O)c3c1C(=O)c1c(cc(O)c(C)c1O)C3=O)-c1c(cc(/C=N/N=C(\S)NC(C)(C)C)c(C(=O)O)c1O)CC2` here?
A: 25 µM

Q: Which IC50 does the source give for `COc1ccc(N/C(S)=N/N=C/c2cc3c(c(O)c2C(=O)O)-c2c(O)c4c(c(OC)c2CC3)C(=O)c2c(cc(O)c(C)c2O)C4=O)cc1` here?
A: 23 µM

Q: Which IC50 does the source give for `COc1c2c(c(O)c3c1C(=O)c1c(cc(O)c(C)c1O)C3=O)-c1c(cc(/C=N/NC(=O)Oc3ccccc3)c(C(=O)O)c1O)CC2` here?
A: > 100 µM

Q: Which IC50 does the source give for `COc1c2c(c(O)c3c1C(=O)c1c(cc(O)c(C)c1O)C3=O)-c1c(cc(/C=N/N=C(\S)NC3CCCC3)c(C(=O)O)c1O)CC2` here?
A: 3.2 µM

Q: With `COc1c2c(c(O)c3c1C(=O)c1c(cc(O)c(C)c1O)C3=O)-c1c(cc(/C=N/N=C(\S)Nc3ccc(C)cc3)c(C(=O)O)c1O)CC2` as the molecule, how does the IC50 read?
A: 12 µM

Q: With `COc1c2c(c(O)c3c1C(=O)c1c(cc(O)c(C)c1O)C3=O)-c1c(cc(/C=N/N=C(\S)NC3CC3)c(C(=O)O)c1O)CC2` as the molecule, how does the IC50 read?
A: 22 µM

Q: Which IC50 does the source give for `CCCCCCCCC/N=C(\S)N/N=C/c1cc2c(c(O)c1C(=O)O)-c1c(O)c3c(c(OC)c1CC2)C(=O)c1c(cc(O)c(C)c1O)C3=O` here?
A: 19 µM

Q: With `CCCCCCC/N=C(\S)N/N=C/c1cc2c(c(O)c1C(=O)O)-c1c(O)c3c(c(OC)c1CC2)C(=O)c1c(cc(O)c(C)c1O)C3=O` as the molecule, how does the IC50 read?
A: 9 µM

Q: For `COc1c2c(c(O)c3c1C(=O)c1c(cc(O)c(C)c1O)C3=O)-c1c(cc(/C=N/N=C(\S)NC3CCCCCCC3)c(C(=O)O)c1O)CC2`, which IC50 is on record?
A: 15 µM

Q: For `COc1c2c(c(O)c3c1C(=O)c1c(cc(O)c(C)c1O)C3=O)-c1c(cc(/C=N/N=C(\S)NC3CCCCCC3)c(C(=O)O)c1O)CC2`, which IC50 is on record?
A: 1.8 µM

Q: Which IC50 does the source give for `CC/N=C(\S)N/N=C/c1cc2c(c(O)c1C(=O)O)-c1c(O)c3c(c(OC)c1CC2)C(=O)c1c(cc(O)c(C)c1O)C3=O` here?
A: 16 µM

Q: Which IC50 does the source give for `CCC/N=C(\S)N/N=C/c1cc2c(c(O)c1C(=O)O)-c1c(O)c3c(c(OC)c1CC2)C(=O)c1c(cc(O)c(C)c1O)C3=O` here?
A: 20 µM

Q: With `CN/C(S)=N/N=C/c1cc2c(c(O)c1C(=O)O)-c1c(O)c3c(c(OC)c1CC2)C(=O)c1c(cc(O)c(C)c1O)C3=O` as the molecule, how does the IC50 read?
A: 29 µM

Q: With `COc1c2c(c(O)c3c1C(=O)c1c(cc(O)c(C)c1O)C3=O)-c1c(cc(/C=N/N=C(\S)NCC(C)C)c(C(=O)O)c1O)CC2` as the molecule, how does the IC50 read?
A: 11 µM

Q: With `COc1c2c(c(O)c3c1C(=O)c1c(cc(O)c(C)c1O)C3=O)-c1c(cc(/C=N/N=C(/N)S)c(C(=O)O)c1O)CC2` as the molecule, how does the IC50 read?
A: > 100 µM

Q: For `COc1c2c(c(O)c3c1C(=O)c1c(cc(O)c(C)c1O)C3=O)-c1c(cc(/C=N/N=C(\S)NN3CCCCC3)c(C(=O)O)c1O)CC2`, which IC50 is on record?
A: 6 µM

Q: Which IC50 does the source give for `CCCCCCCCCCCC/N=C(\S)N/N=C/c1cc2c(c(O)c1C(=O)O)-c1c(O)c3c(c(OC)c1CC2)C(=O)c1c(cc(O)c(C)c1O)C3=O` here?
A: 50 µM

Q: For `CCCC/N=C(\S)N/N=C/c1cc2c(c(O)c1C(=O)O)-c1c(O)c3c(c(OC)c1CC2)C(=O)c1c(cc(O)c(C)c1O)C3=O`, which IC50 is on record?
A: 6 µM

Q: With `COc1c2c(c(O)c3c1C(=O)c1c(cc(O)c(C)c1O)C3=O)-c1c(cc(/C=N/N=C(\S)NC(C)C)c(C(=O)O)c1O)CC2` as the molecule, how does the IC50 read?
A: 24 µM

Q: With `CCC(CC)/N=C(\S)N/N=C/c1cc2c(c(O)c1C(=O)O)-c1c(O)c3c(c(OC)c1CC2)C(=O)c1c(cc(O)c(C)c1O)C3=O` as the molecule, how does the IC50 read?
A: 18 µM

Q: With `CCCCCC/N=C(\S)N/N=C/c1cc2c(c(O)c1C(=O)O)-c1c(O)c3c(c(OC)c1CC2)C(=O)c1c(cc(O)c(C)c1O)C3=O` as the molecule, how does the IC50 read?
A: 8 µM

Q: With `CCCCC/N=C(\S)N/N=C/c1cc2c(c(O)c1C(=O)O)-c1c(O)c3c(c(OC)c1CC2)C(=O)c1c(cc(O)c(C)c1O)C3=O` as the molecule, how does the IC50 read?
A: 13 µM

Q: For `COc1c2c(c(O)c3c1C(=O)c1c(cc(O)c(C)c1O)C3=O)-c1c(cc3c(c1O)C(=O)OC3O)CC2` (centres undefined), which IC50 is on record?
A: 41 µM

Q: With `COc1c2c(c(O)c3c1C(=O)c1c(cc(O)c(C)c1O)C3=O)-c1c(cc(/C=N/NC(=S)NC3CCCCC3)c(C(=O)O)c1O)CC2` [MHL CYCLOHEXYLTHIOSEMICARBAZONE] as the molecule, how does the IC50 read?
A: 0.46 µM

test system: not listed separately; assay: Acute toxicity in the hens fertile egg screening test (HEST).; set-up: species or system Gallus gallus; details: chicken

Q: With `COc1c2c(c(O)c3c1C(=O)c1c(cc(O)c(C)c1O)C3=O)-c1c(cc(/C=N/NC(=S)NC3CCCCC3)c(C(=O)O)c1O)CC2` [MHL CYCLOHEXYLTHIOSEMICARBAZONE] as the molecule, how does the LD50 read?
A: > 50 mg/kg
